Results from patent US8575186B2, “Epiminocycloalkyl[b] indole derivatives as serotonin sub-type 6 (5-HT6) modulators and uses thereof” (Albany Molecular Research, Inc., priority 2009, dated 2013).
Where a name gives a salt, the structure may show the parent alone. Read-outs that look alike come from different tables or passages of the source.

Molecular target: human 5-HT6 receptor (Homo sapiens (Human), UniProt P50406)
Test: radioligand binding assay (SPA format), [N-methyl-3H]-LSD
Conditions: human 5-HT6 receptor membranes, 10 nM [3H]-LSD

Chain of human 5-HT6 receptor (P50406 whole entry): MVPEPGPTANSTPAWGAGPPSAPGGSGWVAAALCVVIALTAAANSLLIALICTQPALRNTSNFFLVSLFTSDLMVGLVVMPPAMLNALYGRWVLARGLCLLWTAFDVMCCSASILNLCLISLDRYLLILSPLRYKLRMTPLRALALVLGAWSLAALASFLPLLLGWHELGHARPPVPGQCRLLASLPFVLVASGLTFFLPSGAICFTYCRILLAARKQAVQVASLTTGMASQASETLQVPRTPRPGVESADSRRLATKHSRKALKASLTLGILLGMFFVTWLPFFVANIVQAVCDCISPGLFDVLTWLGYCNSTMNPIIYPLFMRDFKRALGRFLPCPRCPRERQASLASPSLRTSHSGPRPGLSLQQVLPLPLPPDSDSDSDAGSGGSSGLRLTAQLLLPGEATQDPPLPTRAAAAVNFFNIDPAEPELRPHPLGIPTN

SMILES	Ki (read-out: human 5HT6 Ki)	Ki (human 5HT6 Ki)
CN(C)C(=O)COc1cc(S(=O)(=O)c2ccccc2)cc2c3c(n(C)c12)CC1CCC3N1 (centres unmarked) [Example 153]	581 nM	–
Cc1cn(S(=O)(=O)c2ccc3c(c2)c2c(n3C)CC3CCC2N3)c2ccccc12 (centres unmarked) [Example 201]	1.4 nM	–
CN1C2CCC1c1c(n(C)c3ccc(S(=O)(=O)c4ccc5[nH]ccc5c4)cc13)C2 (centres unmarked) [Example 183]	0.42 nM	–
CC(C)n1ccc2cc(S(=O)(=O)c3ccc4c(c3)c3c(n4C)CC4CCC3N4)ccc21 (centres unmarked) [Example 117]	4.4 nM	–
Cn1c2c(c3cc(S(=O)(=O)c4ccnc5ccccc45)ccc31)C1CCC(C2)N1 (centres unmarked) [Example 132]	39 nM	–
Cn1c2c(c3cc(S(=O)(=O)c4ccccc4F)cc(O)c31)C1CCC(C2)N1 (centres unmarked) [Example 211]	1.6 nM	–
COc1cc(S(=O)(=O)c2cccc(C(F)(F)F)c2)cc2c3c(n(C)c12)CC1CCC3N1 (centres unmarked) [Example 215]	–	1.8 nM
COc1cc(S(=O)(=O)c2cn(C)c3ccccc23)cc2c3c(n(C)c12)CC1CCC3N1 (centres unmarked) [Example 223]	2.4 nM	–
Cn1c2c(c3cc(S(=O)(=O)c4cc(F)c5[nH]ccc5c4)ccc31)C1CCC(C2)N1 (centres unmarked) [Example 124]	0.33 nM	–
COc1cc(S(=O)(=O)c2cccc(OCc3ccccc3)c2)cc2c3c(n(C)c12)CC1CCC3N1 (centres unmarked) [Example 147]	1.4 nM	–
Cn1c2c(c3cc(S(=O)(=O)c4cc(C(F)(F)F)c5[nH]ccc5c4)ccc31)C1CCC(C2)N1 (centres unmarked) [Example 123]	0.47 nM	–
CCOc1cc(S(=O)(=O)c2ccccc2)cc2c3c(n(C)c12)CC1CCC3N1 (centres unmarked) [Example 235]	0.42 nM	–
Cn1c2c(c3cc(S(=O)(=O)n4ccc5cc(Cl)ccc54)ccc31)C1CCC(C2)N1 (centres unmarked) [Example 196]	1.2 nM	–
Cn1c2c(c3cc(S(=O)(=O)c4ccc5[nH]ccc5c4)ccc31)C1CCC(C2)N1CCO (centres unmarked) [Example 138]	1.2 nM	–
Cn1c2c(c3cc(S(=O)(=O)c4cccc5cccnc45)ccc31)C1CCC(C2)N1 (centres unmarked) [Example 170]	17 nM	–
Cn1c2c(c3cc(S(=O)(=O)c4ccccc4F)cc(O)c31)C1CCC(C2)N1 (centres unmarked) [Example 210]	1 nM	–
COc1cc(S(=O)(=O)n2cc(C#N)c3ccccc32)cc2c3c(n(C)c12)CC1CCC3N1 (centres unmarked) [Example 149]	1.2 nM	–
Cn1c2c(c3cc(S(=O)(=O)c4ccccc4)cc(OCc4cccnc4)c31)C1CCC(C2)N1 (centres unmarked) [Example 155]	129 nM	–
COc1cc(S(=O)(=O)c2cccc(-n3cccn3)c2)cc2c3c(n(C)c12)CC1CCC3N1 (centres unmarked) [Example 246]	10 nM	–
Cn1c2c(c3cc(S(=O)(=O)c4cccc(OCc5ccncc5)c4)ccc31)C1CCC(C2)N1 (centres unmarked) [Example 133]	11 nM	–
COCCN1C2CCC1c1c(n(C)c3ccc(S(=O)(=O)c4ccc5[nH]ccc5c4)cc13)C2 (centres unmarked) [Example 136]	1.4 nM	–
Cn1c2c(c3cc(S(=O)(=O)c4ccc5cc[nH]c5c4)ccc31)C1CCC(C2)N1 (centres unmarked) [Example 95]	5.8 nM	–
Cc1cc(S(=O)(=O)c2csc3ccccc23)cc2c3c(n(C)c12)CC1CCC3N1 (centres unmarked) [Example 141]	0.29 nM	–
Cn1c2c(c3cc(S(=O)(=O)c4cccc(-n5cccn5)c4)ccc31)C1CCC(C2)N1 (centres unmarked) [Example 245]	9 nM	–
Cn1c2c(c3cc(S(=O)(=O)c4cccc5cc[nH]c45)ccc31)C1CCC(C2)N1 (centres unmarked) [Example 99]	4.5 nM	–

SMILES	Ki (read-out: human 5HT6 Ki)	Ki (human 5HT6 Ki)
COc1cc(S(=O)(=O)n2ccc3ccccc32)cc2c3c(n(C)c12)CC1CCC3N1 (centres unmarked) [Example 241]	0.35 nM	–
Cn1c2c(c3cc(S(=O)(=O)c4cccc(OCc5ccccc5)c4)ccc31)C1CCC(C2)N1 (centres unmarked) [Example 121]	1.9 nM	–
COc1cc(S(=O)(=O)c2cccc(C(F)(F)F)c2)cc2c3c(n(C)c12)CC1CCC3N1 (centres unmarked) [Example 216]	–	0.8 nM
Cn1c2c(c3cc(S(=O)(=O)c4ccc5[nH]ccc5c4)ccc31)C1CCC(C2)N1Cc1ccccc1 (centres unmarked) [Example 137]	1.2 nM	–
Cn1c2c(c3cc(S(=O)(=O)c4ccccc4)cc(OC(F)(F)F)c31)C1CCC(C2)N1 (centres unmarked) [Example 150]	70 nM	–
COc1cc(S(=O)(=O)c2cccc(-n3cccn3)c2)cc2c3c(n(C)c12)CC1CCC3N1 (centres unmarked) [Example 247]	1.5 nM	–
Cn1c2c(c3cc(S(=O)(=O)c4ccccc4)cc(N4CCCC4)c31)C1CCC(C2)N1 (centres unmarked) [Example 156]	52 nM	–
Cn1c2c(c3cc(S(=O)(=O)c4ccc(C#N)cc4)ccc31)C1CCC(C2)N1 (centres unmarked) [Example 178]	454 nM	–
Cc1cn(S(=O)(=O)c2ccc3c(c2)c2c(n3C)CC3CCC2N3)c2ccccc12 (centres unmarked) [Example 202]	0.72 nM	–
Cn1c2c(c3cc(S(=O)(=O)c4ccccc4F)ccc31)C1CCC(C2)N1 (centres unmarked) [Example 112]	4.6 nM	–
Cn1c2c(c3cc(S(=O)(=O)c4ccc5c(ccn5CCO)c4)ccc31)C1CCC(C2)N1 (centres unmarked) [Example 119]	228 nM	–
COc1cc(S(=O)(=O)c2cncc3ccccc23)cc2c3c(n(C)c12)CC1CCC3N1 (centres unmarked) [Example 233]	3.7 nM	–
Cn1c2c(c3cc(S(=O)(=O)c4ccccc4)cc(C#N)c31)C1CCC(C2)N1 (centres unmarked) [Example 142]	115 nM	–
COCCn1ccc2cc(S(=O)(=O)c3ccc4c(c3)c3c(n4C)CC4CCC3N4)ccc21 (centres unmarked) [Example 120]	64 nM	–
CN1C2CCC1c1c(n(C)c3ccc(S(=O)(=O)c4ccc5[nH]ccc5c4)cc13)C2 (centres unmarked) [Example 134]	0.26 nM	–
COc1cc(S(=O)(=O)c2ccc3[nH]ccc3c2)cc2c3c(n(C)c12)CC1CCC3N1 (centres unmarked) [Example 145]	0.31 nM	–
Cc1cc2ccccc2n1S(=O)(=O)c1ccc2c(c1)c1c(n2C)CC2CCC1N2 (centres unmarked) [Example 126]	7.2 nM	–
Cn1c2c(c3cc(S(=O)(=O)n4ccc5ccc(C#N)cc54)ccc31)C1CCC(C2)N1 (centres unmarked) [Example 199]	–	1.8 nM
Cn1c2c(c3cc(S(=O)(=O)c4ccc(CN)cc4)ccc31)C1CCC(C2)N1 (centres unmarked) [Example 33, 2-(4-Aminomethylphenyl)sulfonyl-5-methyl-5,6,7,8,9,10-hexahydro-7,10-epiminocyclohepta[b]indole dihydrochloride]	15 nM	–
Cn1c2c(c3cc(S(=O)(=O)n4ccc5cc(Cl)ccc54)ccc31)C1CCC(C2)N1 (centres unmarked) [Example 195]	4.6 nM	–
Cn1c2c(c3cc(S(=O)(=O)c4ccccc4)cc(OCc4ccccn4)c31)C1CCC(C2)N1 (centres unmarked) [Example 154]	80 nM	–
CN(C)Cc1ccc(S(=O)(=O)c2ccc3c(c2)c2c(n3C)CC3CCC2N3)cc1 (centres unmarked) [Example 34, 2-[4-(N,N-Dimethylaminomethyl)phenyl]sulfonyl-5-methyl-5,6,7,8,9,10-hexahydro-7,10-epiminocyclohepta[b]indole dihydrochloride]	4.8 nM	–
Cn1c2c(c3cc(S(=O)(=O)n4cc(F)c5ccccc54)ccc31)C1CCC(C2)N1 (centres unmarked) [Example 129]	2.7 nM	–
Cn1c2c(c3cc(S(=O)(=O)n4ccc5ccc(C#N)cc54)ccc31)C1CCC(C2)N1 (centres unmarked) [Example 200]	0.75 nM	–
COc1cc(S(=O)(=O)n2ccc3ccccc32)cc2c3c(n(C)c12)CC1CCC3N1 (centres unmarked) [Example 240]	0.85 nM	–

SMILES	Ki (read-out: human 5HT6 Ki)	Ki (human 5HT6 Ki)
CN1C2CCC1c1c(n(C)c3ccc(S(=O)(=O)c4ccc5[nH]ccc5c4)cc13)C2 (centres unmarked) [Example 184]	0.35 nM	–
Cn1c2c(c3cc(S(=O)(=O)c4ccc5occc5c4)ccc31)C1CCC(C2)N1 (centres unmarked) [Example 116]	20 nM	–
COc1cc(S(=O)(=O)c2cccc(OC(F)F)c2)cc2c3c(n(C)c12)CC1CCC3N1 (centres unmarked) [Example 214]	3 nM	–
Cn1c2c(c3cc(S(=O)(=O)c4cc(Cl)ccn4)ccc31)C1CCC(C2)N1 (centres unmarked) [Example 97]	104 nM	–
Cn1c2c(c3cc(S(=O)(=O)n4ccc5ccc(C#N)cc54)ccc31)C1CCC(C2)N1 (centres unmarked) [Example 127]	1.5 nM	–
Cn1c2c(c3cc(S(=O)(=O)c4cccc(-c5cc[nH]n5)c4)ccc31)C1CCC(C2)N1 (centres unmarked) [Example 125]	244 nM	–
Cn1c2c(c3cc(S(=O)(=O)c4cnc5[nH]ccc5c4)ccc31)C1CCC(C2)N1 (centres unmarked) [Example 101]	2.9 nM	–
CC(C)N1C2CCC1c1c(n(C)c3ccc(S(=O)(=O)c4ccc5[nH]ccc5c4)cc13)C2 (centres unmarked) [Example 135]	3.2 nM	–
Cn1c2c(c3cc(S(=O)(=O)c4csc5ccccc45)cc(F)c31)C1CCC(C2)N1 (centres unmarked) [Example 139]	0.47 nM	–
CC(C)n1c2c(c3cc(S(=O)(=O)c4ccccc4)ccc31)C1CCC(C2)N1 (centres unmarked) [Example 182]	365 nM	–
Cn1c2c(c3cc(S(=O)(=O)c4cccc(-n5cccn5)c4)ccc31)C1CCC(C2)N1 (centres unmarked) [Example 244]	14 nM	–
COc1cc(S(=O)(=O)n2ccc3ccc(C#N)cc32)cc2c3c(n(C)c12)CC1CCC3N1 (centres unmarked) [Example 243]	0.58 nM	–
Cn1c2c(c3cc(S(=O)(=O)c4cccc5cccnc45)ccc31)C1CCC(C2)N1 (centres unmarked) [Example 169]	27 nM	–
CCN1C2CCC1c1c(n(C)c3ccc(S(=O)(=O)c4ccc5[nH]ccc5c4)cc13)C2 (centres unmarked) [Example 185]	1.5 nM	–
COc1cc(S(=O)(=O)c2cccc(Cl)c2)cc2c3c(n(C)c12)CC1CCC3N1C (centres unmarked) [Example 226]	1 nM	–
Cn1c2c(c3cc(S(=O)(=O)n4ccc5c(F)cccc54)ccc31)C1CCC(C2)N1 (centres unmarked) [Example 64, 2-[1-(4-Fluoro)-indole]sulfonyl-5-methyl-5,6,7,8,9,10-hexahydro-7,10-epiminocyclohepta[b]indole hydrochloride]	5.6 nM	–
Cn1c2c(c3cc(S(=O)(=O)c4ccccc4Cl)ccc31)C1CCC(C2)N1 (centres unmarked) [Example 115]	4.8 nM	–
Cn1c2c(c3cc(S(=O)(=O)c4ccc(C#N)cc4)ccc31)C1CCC(C2)N1 (centres unmarked) [Example 177]	747 nM	–
Cn1c2c(c3cc(S(=O)(=O)c4cccc5cccnc45)ccc31)C1CCC(C2)N1 (centres unmarked) [Example 113]	23 nM	–
COc1cc(S(=O)(=O)n2ncc3ccccc32)cc2c3c(n(C)c12)CC1CCC3N1 (centres unmarked) [Example 148]	1.3 nM	–
Cn1cc(S(=O)(=O)c2ccc3c(c2)c2c(n3C)CC3CCC2N3)c2ccccc21 (centres unmarked) [Example 165]	0.81 nM	–
COc1cc(S(=O)(=O)c2cncc3ccccc23)cc2c3c(n(C)c12)CC1CCC3N1 (centres unmarked) [Example 232]	9.6 nM	–
CCN1C2CCC1c1c(n(C)c3ccc(S(=O)(=O)c4ccc5[nH]ccc5c4)cc13)C2 (centres unmarked) [Example 186]	0.77 nM	–
Cn1c2c(c3cc(S(=O)(=O)c4cccc5ccncc45)ccc31)C1CCC(C2)N1 (centres unmarked) [Example 131]	13 nM	–
